Measured values from US20060074073A1, “Therapeutic combinations comprising poly (ADP-ribose) polymerases inhibitor” (AGOURON PHARMACEUTICALS, INC., priority 2004, published 2006).
Several values for one entry are separate records, joined by “and”; a condition that tells them apart may be missing. Equal values may be shown once. Marks after values point to notes of the source that are not given here.

Columns and labels:
[1] = test system: LoVo xenografts; assay: In vivo antitumor efficacy with irinotecan, LoVo xenograft; set-up: species or system mice; conditions: once weekly × 3
Text: (§1) In no combination study was antagonism observed.

[2] = test system: PARP; assay: Tumor PARP catalytic activity, 32P-NAD incorporation in SW620 tumor homogenates of treated animals; type: in vivo, mice
Protocol: Tumours were excised and were snap frozen in liquid nitrogen and stored at −80° C. until homogenised for analysis. The specimen was defrosted on ice and the wet weight documented. The tissue was homogenised using a Pro 2000 instrument (Pro Scientific Inc, Monroe, Conn., USA) in 3 volumes (i.e. 1 mg plus 3 μl isotonic buffer −7 mM Hepes, 26 mM KCl, 0.1 mM dextran, 0.4 mM EGTA, 0.5 mM MgCl2, 45 mM sucrose, pH 7.8), giving a homogenate with an overall dilution of 1 in 4. The homogenate was kept on ice throughout the process, and homogenisation was performed in 10 second bursts to prevent undue warming of the sample. Prior to assay the samples were further diluted with isotonic buffer where necessary to give a final dilution of 1 in 40 for [^32P]NAD incorporation assay or 1 in 1000 for immunoblot aaasy.
Briefly, cells were suspended in hypotonic buffer (9 mM HEPES pH 7.8, 4.5% (v/v) dextran, 4.5 mM MgCl2 and 5 mM DTT) at 1.5×10^7/ml on ice for 30 minutes then 9 vol of isotonic buffer (40 mM HEPES pH 7.8, 130 mM KCl, 4% (v/v) dextran, 2 mM EGTA, 2.3 mM MgCl2, 225 mM sucrose and 2.5 mM DTT) was added. The reaction was started by adding 300 μl cells to 100 μl 300 μM NAD^+ containing [^32P]-NAD^+ (Amersham, UK), and terminated by the addition of 2 ml ice cold 10% (w/v) TCA+10% (w/v) sodium pyrophosphate. After 30 min on ice the precipitated ^32P—labelled ADP-ribose polymers were filtered on Whatman GC/C filters (Whatman Intemational Ltd, Kent, UK), washed 5 times with 1% (v/v) TCA/1% (v/v) sodium pyrophosphate, dried and counted. PARP inhibitory IC50 values were calculated from computer-fitted curves (GraphPad Software, Inc., San Diego, Calif.).
Tumour homogenates were assayed in a similar manner; however, the homogenisation process introduces sufficient DNA damage to maximally stimulate PARP activity and oligonucleotide was not therefore required. Results were expressed in terms of pmol PAR former per mg tumour.
Preparation of Tumour/Tissue Samples • 1. The frozen tumour samples are weighed. • 2. 3 volumes (i.e. 3 μl solution added for each 1 mg tissue) of isotonic buffer plus DTT is added to the tumour sample. This is stored on ice until and during homogenisation. • 3. The sample is homogenised on ice within a Class II cabinet for 10-second bursts until no detectable macroscopic pieces of tissue are visible. • 4. Sufficient volume of the homogenate is diluted 1 in 10 with isotonic buffer plus DTT to provide an overall dilution of 1 in 40 from the original sample. A final volume of 3 ml is sufficient for triplicate sampling and a subsequent protein assay. • 5. The diluted homogenate is stored on ice and assayed within one hour as below.
PARP Assay of Tumour/Tissue Samples • 1. ^32P 600 μM NAD solution is prepared fresh on the day of experiment as detailed above. Oligonucleotide stock is removed from storage and defrosted. • 2. Water bath is warmed to 26° C. and set to agitate at 70 oscillations per minute.
3. Reaction test tubes are set up as per table A for the QC samples and as per table B for the homogenate.
• 4. Each QC sample is assayed in triplicate, with T0, +oligo and −oligo samples ×3. (Total of 9 tubes per sample, if low cell counts −oligo samples are omitted.) Homogenates are also assayed in triplicate, with T0 and reaction samples ×3. (Total 6 tubes per sample). • 5. 2 ml ice cold 10% TCA+10% NaPPi is added to the T0 tubes prior to addition of homogenate or cells, to correct for non-specific binding of radio-label to the filter. • 6. Reaction test tubes homogenates and QC cells are warmed in the water bath to 26° C. for 7 minutes. • 7. Each preparation is vortexed briefly and the reaction is started by adding 300 μl of this to each reaction tube. • 8. The reaction is stopped exactly 6 minutes after addition of homogenate by adding 2 ml of ice cold 10% TCA+10% NaPPi and vortexing. • 9. The tube is then incubated on ice for at least one hour prior to filtration. • 10. […]

[3] = test system: SW620 human colon carcinoma xenograft; assay: In vivo antitumor efficacy with temozolomide, SW620 xenograft; conditions: SW620
[4] = Plasma and tumor levels by HPLC/MS in mice bearing SW620 xenograft; type: in vivo
Protocol: In a parallel study plasma and tumor levels of the compound of formula 1 were measured by an HPLC/MS assay. In addition the degree of inhibition of tumor PARP catalytic activity was assessed using P^32-NAD incorporation into poly-ADP-ribose polymer in homogenates from SW620 tumors of treated animals. […] PARP catalytic activity was inhibited by 50% at 6 h and by 25% at 24 h.

[5] = test system: LoVo xenografts; assay: In vivo antitumor efficacy with temozolomide, LoVo xenograft
Text: as §1

**Q.** With `CNCc1ccc(-c2[nH]c3cc(F)cc4c3c2CCNC4=O)cc1.O=C[C@H](O)[C@@H](O)[C@H](O)[C@H](O)C(=O)O` [compound of formula 1 glucuronate salt] as the molecule, how does the “Enhancement (%)” value ([1]; irinotecan 25 mg/kg i.p. + 0.0 mg/kg i.p. (glucuronate salt)) read?
**A.** 0%

**Q.** And the “Enhancement (%)” value ([1]; irinotecan 25 mg/kg i.p. + 0.15 mg/kg i.p. (glucuronate salt))?
**A.** 71%

**Q.** And the “Enhancement (%)” value ([1]; irinotecan 25 mg/kg i.p. + 0.5 mg/kg i.p. (glucuronate salt))?
**A.** 86^f %

**Q.** And the “PARP Activity (%)” value ([2]; 0.1 mg/kg i.p. glucuronate salt + temozolomide 68 mg/kg, 0.5 h)?
**A.** 77.6 ± 13.3%

**Q.** What about the “PARP Activity (%)” value ([2]; 0.1 mg/kg i.p. glucuronate salt + temozolomide 68 mg/kg, 6 h) of the same molecule?
**A.** 90.2 ± 11.5%

**Q.** And the “PARP Activity (%)” value ([2]; 0.1 mg/kg i.p. glucuronate salt + temozolomide 68 mg/kg, 24 h)?
**A.** 100.4 ± 7.5%

**Q.** And the “PARP Activity (%)” value ([2]; 1.0 mg/kg i.p. glucuronate salt + temozolomide 68 mg/kg, 0.5 h)?
**A.** 24.9 ± 16.2%

**Q.** What about the “PARP Activity (%)” value ([2]; 1.0 mg/kg i.p. glucuronate salt + temozolomide 68 mg/kg, 6 h) of the same molecule?
**A.** 68.6 ± 36.2%

**Q.** And the “PARP Activity (%)” value ([2]; 1.0 mg/kg i.p. glucuronate salt + temozolomide 68 mg/kg, 24 h)?
**A.** 70.2 ± 19.0%

**Q.** What about the “PARP Activity (%)” value ([2]; 10 mg/kg i.p. glucuronate salt + temozolomide 68 mg/kg, 0.5 h) of the same molecule?
**A.** 3.4 ± 1.4%

**Q.** What about the “PARP Activity (%)” value ([2]; 10 mg/kg i.p. glucuronate salt + temozolomide 68 mg/kg, 6 h) of the same molecule?
**A.** 4.8 ± 0.87%

**Q.** And the “PARP Activity (%)” value ([2]; 10 mg/kg i.p. glucuronate salt + temozolomide 68 mg/kg, 24 h)?
**A.** 18.3 ± 12.7%

**Q.** What about the “Enhancement (%)” value ([3]; 0.1 mg/kg i.p. glucuronate salt + temozolomide 68 mg/kg p.o., QD×5) of the same molecule?
**A.** 28^g %

**Q.** What about the “Enhancement (%)” value ([3]; 1.0 mg/kg i.p. glucuronate salt + temozolomide 68 mg/kg p.o., QD×5) of the same molecule?
**A.** ≧100^g %

**Q.** And the body weight loss ([3]; temozolomide 68 mg/kg + 0.05 or 0.15 mg/kg glucuronate salt QD×5)?
**A.** No body weight loss

**Q.** And the complete remission rate ([3]; temozolomide 68 mg/kg + 0.15 or 0.5 mg/kg glucuronate salt QD×5)?
**A.** 100%

**Q.** What about the “Enhancement (%)” value ([3]; temozolomide 68 mg/kg oral + 0.05 mg/kg i.p. (glucuronate salt), once daily for 5 days) of the same molecule?
**A.** 35%

**Q.** What about the “Enhancement (%)” value ([3]; temozolomide 68 mg/kg oral + 0.15 mg/kg i.p. (glucuronate salt), once daily for 5 days) of the same molecule?
**A.** 270^f %

**Q.** What about the “Enhancement (%)” value ([3]; temozolomide 68 mg/kg oral + 0.5 mg/kg i.p. (glucuronate salt), once daily for 5 days) of the same molecule?
**A.** >60^f, g %

**Q.** What about the “Plasma compound of formula 1” value ([4]; 0.1 mg/kg i.p. as glucuronate salt + temozolomide 68 mg/kg p.o., 0.5 h) of the same molecule?
**A.** 12.7 ± 2.3 ng/mL

**Q.** And the “Plasma compound of formula 1” value ([4]; 0.1 mg/kg i.p. as glucuronate salt + temozolomide 68 mg/kg p.o., 6 h)?
**A.** 0.0 ± 0.0 ng/mL

**Q.** And the “Plasma compound of formula 1” value ([4]; 0.1 mg/kg i.p. as glucuronate salt + temozolomide 68 mg/kg p.o., 24 h)?
**A.** 0.0 ± 0.0 ng/mL

**Q.** What about the “Plasma compound of formula 1” value ([4]; 1.0 mg/kg i.p. as glucuronate salt + temozolomide 68 mg/kg p.o., 0.5 h) of the same molecule?
**A.** 92.0 ± 28.0 ng/mL

**Q.** What about the “Plasma compound of formula 1” value ([4]; 1.0 mg/kg i.p. as glucuronate salt + temozolomide 68 mg/kg p.o., 6 h) of the same molecule?
**A.** 4.7 ± 4.0 ng/mL

**Q.** What about the “Plasma compound of formula 1” value ([4]; 1.0 mg/kg i.p. as glucuronate salt + temozolomide 68 mg/kg p.o., 24 h) of the same molecule?
**A.** 0.0 ± 0.0 ng/mL

**Q.** What about the “Plasma compound of formula 1” value ([4]; 10 mg/kg i.p. as glucuronate salt + temozolomide 68 mg/kg p.o., 0.5 h) of the same molecule?
**A.** 1532 + 134 ng/mL

**Q.** What about the “Plasma compound of formula 1” value ([4]; 10 mg/kg i.p. as glucuronate salt + temozolomide 68 mg/kg p.o., 6 h) of the same molecule?
**A.** 98.0 ± 28.0 ng/mL

**Q.** What about the “Plasma compound of formula 1” value ([4]; 10 mg/kg i.p. as glucuronate salt + temozolomide 68 mg/kg p.o., 24 h) of the same molecule?
**A.** 17.8 ± 29.5 ng/mL

**Q.** What about the body weight loss ([5]; LoVo experiment, any dose group) of the same molecule?
**A.** No body weight loss

**Q.** What about the “Enhancement (%)” value ([5]; LoVo, temozolomide 68 mg/kg oral + 0.5 mg/kg i.p. (glucuronate salt), once daily for 5 days) of the same molecule?
**A.** 67% and 67^f %
